Assay results as given in US3981999A, “Fish disease treatment” (Dainippon Pharmaceutical Co., Ltd., priority 1973, dated 1976).
In brackets after ≈: the same amount, converted by molar mass. Read-outs that look alike come from different tables or passages of the source.

Key:
[1] = system: Aeromonas liquefaciens Y-62; test: MIC by broth serial dilution; assay type: cell-based; settings: Aeromonas hydrophila
Description: (§1) The MIC (minimum inhibitory concentration) of a test compound was determined by the serial dilution method on various pathogenic microorganisms incubated under the following experimental conditions. The lowest concentration at which the visible growth of the organism was inhibited was considered as MIC. […]
(§2) the broth-dilution method bouillon, pH 7.2, except for Vibrio (3% NaCl-bouillon, pH 7.2), Pasteurella (2% NaCl-Brain Heart Infusion, pH 7.3 and Chondrococcus (TY medium, pH 7.3) 1 drop of a bacterial suspension per test tube (100 - 1000 minimal growing units in the medium) 25°C, except for Pseud. anguilliseptica (20°C)
(§3) 48 hours, except for Pseudo. anguilliseptica ([…])

[2] = system: Aeromonas salmonicida Hara-1; test: MIC by broth serial dilution; assay type: cell-based
Description: as §1, §2, §3

[3] = system: Aeromonas salmonicida Hara-2; test: MIC by broth serial dilution; assay type: cell-based
Description: as §1, §2, §3

[4] = system: Aeromonas salmonicida Kawazu; test: MIC by broth serial dilution; assay type: cell-based
Description: as §1, §2, §3

[5] = system: Aeromonas salmonicida Kusuda; test: MIC by broth serial dilution; assay type: cell-based
Description: as §1, §2, §3

Chondrococcus sp K-1 = test: MIC by broth serial dilution; assay type: cell-based
Description: as §1, §2, §3

Chondrococcus sp K-2 = test: MIC by broth serial dilution; assay type: cell-based
Description: as §1, §2, §3

[6] = system: Pasteurella piscicida Al-3; test: MIC by broth serial dilution; assay type: cell-based; settings: Photobacterium damselae
Description: as §1, §2, §3

[7] = system: Pasteurella piscicida K-1; test: MIC by broth serial dilution; assay type: cell-based; settings: Photobacterium damselae
Description: as §1, §2, §3

[8] = system: Pseudomonas anguilliseptica S-1; test: MIC by broth serial dilution; assay type: cell-based
Description: as §1, §2, §3

[9] = system: Pseudomonas anguilliseptica T-2; test: MIC by broth serial dilution; assay type: cell-based
Description: as §1, §2, §3

Vibrio anguillarum A-8 = test: MIC by broth serial dilution; assay type: cell-based
Description: as §1, §2, §3

Vibrio anguillarum K-3 = test: MIC by broth serial dilution; assay type: cell-based
Description: as §1, §2, §3

Vibrio anguillarum Km-30 = test: MIC by broth serial dilution; assay type: cell-based
Description: as §1, §2, §3

[10] = system: Aeromonas liquefacieus Y-62; test: Oral effect against Aeromonas infection in goldfish; assay type: in vivo
Description: Goldfish each weighing about 6 - 7 g were given a fish food containing each of the test compounds. After 30 minutes, the fish were infected intramuscularly with Aeromonas liquefacieus Y-62 (about 10^7 germs/fish) under ether anesthesia. […] In the same manner, the control group was given the same fish food without the test compound.

goldfish = test: Oral toxicity in goldfish; assay type: in vivo; settings: 10% in diet (PA 800, AT-1493 955, AT-1557 935, AT-1475 923 mg/kg); for Mortality: 7 days; for Number of the survival after 1 day from administration / Number of the survival after 2 days from administration / Number of the survival after 3 days from administration / Number of the survival after 4 days from administration / Number of the survival after 5 days from administration / Number of the survival after 6 days from administration / Number of the survival after 7 days from administration: day 0: 5 fish
Description: A diet containing 10% of each of the test compounds was given orally to groups each consisting of 5 goldfish each weighing 6 to 10 g, and observation was made for the following 7 days. The temperature of the water was maintained at 28°C.

[11] = Y62, bouillon pH 7.2, 25°C, 48 hours, read-out: MIC
[12] = HARA1, bouillon pH 7.2, 25°C, 48 hours, read-out: MIC
[13] = HARA2, bouillon pH 7.2, 25°C, 48 hours, read-out: MIC
[14] = bouillon pH 7.2, 25°C, 48 hours, read-out: MIC
[15] = TY medium pH 7.3, 25°C, 48 hours, read-out: MIC
[16] = AL3, 2% NaCl-Brain Heart Infusion pH 7.3, 25°C, 48 hours, read-out: MIC
[17] = K1, 2% NaCl-Brain Heart Infusion pH 7.3, 25°C, 48 hours, read-out: MIC
[18] = S1, bouillon pH 7.2, 20°C, 7 hours, read-out: MIC
[19] = T2, bouillon pH 7.2, 20°C, 7 hours, read-out: MIC
[20] = A8, 3% NaCl-bouillon pH 7.2, 25°C, 48 hours, read-out: MIC
[21] = K3, 3% NaCl-bouillon pH 7.2, 25°C, 48 hours, read-out: MIC
[22] = KM30, 3% NaCl-bouillon pH 7.2, 25°C, 48 hours, read-out: MIC
[23] = 0.1% in diet (PA 6.1, AT-1493 7.5, AT-1557 7.6, AT-1475 7.5 mg/kg), 5 days
[24] = 0.1% in diet (PA 6.1, AT-1493 7.5, AT-1557 7.6, AT-1475 7.5 mg/kg), day 0: PA 10, others 5 fish
[25] = 0.3% in diet, 22.3 mg/kg, day 0: 5 fish
[26] = 0.03% in diet (PA 2.5, AT-1493 2.5, AT-1557 2.2 mg/kg), 5 days
[27] = 0.03% in diet (PA 2.5, AT-1493 2.5, AT-1557 2.2 mg/kg), day 0: PA 10, others 5 fish
[28] = 1% in diet, 80.4 mg/kg, day 0: 5 fish
[29] = 3% in diet, 253.1 mg/kg, day 0: 5 fish

## C=Cn1cc(C(=O)O)c(=O)c2ccc(N3CCNCC3)nc21 [AT-1475, 1,4-Dihydro-7-(1-piperazinyl)-4-oxo-1-vinyl-1,8-naphthyridine-3-carboxylicacid]
[1]; [11]
  MIC: 0.3 µg/mL (≈ 0.999 µM)
[2]; [12]
  MIC: 0.3 µg/mL (≈ 0.999 µM)
[3]; [13]
  MIC: 1 µg/mL (≈ 3.33 µM)
[4]; [14]
  MIC: 0.3 µg/mL (≈ 0.999 µM)
[5]; [14]
  MIC: 0.3 µg/mL (≈ 0.999 µM)
Chondrococcus sp K-1; [15]
  MIC: 1 µg/mL (≈ 3.33 µM)
Chondrococcus sp K-2; [15]
  MIC: 1 µg/mL (≈ 3.33 µM)
[6]; [16]
  MIC: 1 µg/mL (≈ 3.33 µM)
[7]; [17]
  MIC: 1 µg/mL (≈ 3.33 µM)
[8]; [18]
  MIC: 0.1 µg/mL (≈ 0.333 µM)
[9]; [19]
  MIC: 0.1 µg/mL (≈ 0.333 µM)
Vibrio anguillarum A-8; [20]
  MIC: 10 µg/mL (≈ 33.3 µM)
Vibrio anguillarum K-3; [21]
  MIC: 3 µg/mL (≈ 9.99 µM)
Vibrio anguillarum Km-30; [22]
  MIC: 10 µg/mL (≈ 33.3 µM)
[10]; [23]
  Percent survival: 60%
[10]; [24]
  Number of surviving fish after 1 day: 5
  Number of surviving fish after 2 days: 4
  Number of surviving fish after 3 days: 4
  Number of surviving fish after 4 days: 3
  Number of surviving fish after 5 days: 3
[10]; 0.3% in diet, 22.3 mg/kg, 5 days
  Percent survival: 100%
[10]; [25]
  Number of surviving fish after 1 day: 5
  Number of surviving fish after 2 days: 5
  Number of surviving fish after 3 days: 5
  Number of surviving fish after 4 days: 5
  Number of surviving fish after 5 days: 5
goldfish
  Mortality: 0%
  Number of the survival after 1 day from administration: 5
  Number of the survival after 2 days from administration: 5
  Number of the survival after 3 days from administration: 5
  Number of the survival after 4 days from administration: 5
  Number of the survival after 5 days from administration: 5
  Number of the survival after 6 days from administration: 5
  Number of the survival after 7 days from administration: 5

## C=Cn1cc(C(=O)O)c(=O)c2ccc(N3CCN(C)CC3)cc21 [AT-1493, 1,4-Dihydro-7-(4-methyl-1-piperazinyl)-4-oxo-1-vinylquinoline-3-carboxylicacid]
[1]; [11]
  MIC: 0.1 µg/mL (≈ 0.319 µM)
[2]; [12]
  MIC: 0.1 µg/mL (≈ 0.319 µM)
[3]; [13]
  MIC: 0.1 µg/mL (≈ 0.319 µM)
[4]; [14]
  MIC: 0.1 µg/mL (≈ 0.319 µM)
[5]; [14]
  MIC: 0.1 µg/mL (≈ 0.319 µM)
Chondrococcus sp K-1; [15]
  MIC: 3 µg/mL (≈ 9.57 µM)
Chondrococcus sp K-2; [15]
  MIC: 3 µg/mL (≈ 9.57 µM)
[6]; [16]
  MIC: 1 µg/mL (≈ 3.19 µM)
[7]; [17]
  MIC: 0.3 µg/mL (≈ 0.957 µM)
[8]; [18]
  MIC: 0.1 µg/mL (≈ 0.319 µM)
[9]; [19]
  MIC: 0.1 µg/mL (≈ 0.319 µM)
Vibrio anguillarum A-8; [20]
  MIC: 3 µg/mL (≈ 9.57 µM)
Vibrio anguillarum K-3; [21]
  MIC: 3 µg/mL (≈ 9.57 µM)
Vibrio anguillarum Km-30; [22]
  MIC: 3 µg/mL (≈ 9.57 µM)
[10]; [26]
  Percent survival: 100%
[10]; [27]
  Number of surviving fish after 1 day: 5
  Number of surviving fish after 2 days: 5
  Number of surviving fish after 3 days: 5
  Number of surviving fish after 4 days: 5
  Number of surviving fish after 5 days: 5
[10]; [23]
  Percent survival: 100%
[10]; [24]
  Number of surviving fish after 1 day: 5
  Number of surviving fish after 2 days: 5
  Number of surviving fish after 3 days: 5
  Number of surviving fish after 4 days: 5
  Number of surviving fish after 5 days: 5
goldfish
  Mortality: 0%
  Number of the survival after 1 day from administration: 5
  Number of the survival after 2 days from administration: 5
  Number of the survival after 3 days from administration: 5
  Number of the survival after 4 days from administration: 5
  Number of the survival after 5 days from administration: 5
  Number of the survival after 6 days from administration: 5
  Number of the survival after 7 days from administration: 5

## C=Cn1cc(C(=O)O)c(=O)c2ccc(N3CCN(CC)CC3)cc21 [AT-1557, 1,4-Dihydro-7-(4-ethyl-1-piperazinyl)-4-oxo-1-vinylquinoline-3-carboxylic acid]
[1]; [11]
  MIC: 0.3 µg/mL (≈ 0.916 µM)
[2]; [12]
  MIC: 0.3 µg/mL (≈ 0.916 µM)
[3]; [13]
  MIC: 0.3 µg/mL (≈ 0.916 µM)
[4]; [14]
  MIC: 0.1 µg/mL (≈ 0.305 µM)
[5]; [14]
  MIC: 0.3 µg/mL (≈ 0.916 µM)
Chondrococcus sp K-1; [15]
  MIC: 1 µg/mL (≈ 3.05 µM)
Chondrococcus sp K-2; [15]
  MIC: 1 µg/mL (≈ 3.05 µM)
[6]; [16]
  MIC: 1 µg/mL (≈ 3.05 µM)
[7]; [17]
  MIC: 1 µg/mL (≈ 3.05 µM)
[8]; [18]
  MIC: 0.1 µg/mL (≈ 0.305 µM)
[9]; [19]
  MIC: 0.1 µg/mL (≈ 0.305 µM)
Vibrio anguillarum A-8; [20]
  MIC: 3 µg/mL (≈ 9.16 µM)
Vibrio anguillarum K-3; [21]
  MIC: 10 µg/mL (≈ 30.5 µM)
Vibrio anguillarum Km-30; [22]
  MIC: 10 µg/mL (≈ 30.5 µM)
[10]; [26]
  Percent survival: 80%
[10]; [27]
  Number of surviving fish after 1 day: 5
  Number of surviving fish after 2 days: 4
  Number of surviving fish after 3 days: 4
  Number of surviving fish after 4 days: 4
  Number of surviving fish after 5 days: 4
[10]; [23]
  Percent survival: 100%
[10]; [24]
  Number of surviving fish after 1 day: 5
  Number of surviving fish after 2 days: 5
  Number of surviving fish after 3 days: 5
  Number of surviving fish after 4 days: 5
  Number of surviving fish after 5 days: 5
goldfish
  Mortality: 0%
  Number of the survival after 1 day from administration: 5
  Number of the survival after 2 days from administration: 5
  Number of the survival after 3 days from administration: 5
  Number of the survival after 4 days from administration: 5
  Number of the survival after 5 days from administration: 5
  Number of the survival after 6 days from administration: 5
  Number of the survival after 7 days from administration: 5

## CN(C)C1C(=O)C(C(N)=O)=C(O)C2(O)C(=O)C3=C(O)c4c(O)cccc4C(C)(O)C3CC12 (centres unmarked) [Tetracycline, tetracycline, reference compound]
[1]; Y62, 48 h, pH 7.2
  MIC: 1 µg/mL (≈ 2.25 µM)
[2]; HARA1, 48 h, pH 7.2
  MIC: 0.3 µg/mL (≈ 0.675 µM)
[3]; HARA2, 48 h, pH 7.2
  MIC: 0.1 µg/mL (≈ 0.225 µM)
[4]; 48 h, pH 7.2
  MIC: 1 µg/mL (≈ 2.25 µM)
[5]; 48 h, pH 7.2
  MIC: 0.3 µg/mL (≈ 0.675 µM)
Chondrococcus sp K-1; 48 h, pH 7.3
  MIC: 1 µg/mL (≈ 2.25 µM)
Chondrococcus sp K-2; 48 h, pH 7.3
  MIC: 1 µg/mL (≈ 2.25 µM)
[6]; AL3, 48 h, pH 7.3
  MIC: 0.3 µg/mL (≈ 0.675 µM)
[7]; K1, 48 h, pH 7.3
  MIC: 0.3 µg/mL (≈ 0.675 µM)
[8]; S1, 7 h, pH 7.2
  MIC: 0.3 µg/mL (≈ 0.675 µM)
[9]; T2, 7 h, pH 7.2
  MIC: 0.3 µg/mL (≈ 0.675 µM)
Vibrio anguillarum A-8; A8, 48 h, pH 7.2
  MIC: 1 µg/mL (≈ 2.25 µM)
Vibrio anguillarum K-3; K3, 48 h, pH 7.2
  MIC: 1 µg/mL (≈ 2.25 µM)
Vibrio anguillarum Km-30; KM30, 48 h, pH 7.2
  MIC: 0.3 µg/mL (≈ 0.675 µM)
[10]; 1% in diet, 80.4 mg/kg
  Percent survival: 0%
[10]; [28]
  Number of surviving fish after 1 day: 3
  Number of surviving fish after 2 days: 0
  Number of surviving fish after 3 days: 0
[10]; 3% in diet, 253.1 mg/kg
  Percent survival: 0%
[10]; [29]
  Number of surviving fish after 1 day: 5
  Number of surviving fish after 2 days: 1
  Number of surviving fish after 3 days: 0
[10]; diet concentration of as high as more than 0.1% as well as as low as 0.1%
  Percent survival: zero
